Data taken from patent US11738095B2, “Cyanine-containing compounds for cancer imaging and treatment” (Emory University, priority 2007, dated 2023).

Assays:
[1] = system: VEC; assay: uptake of IR783 in cell lines: vascular endothelia; type: cell-based, human
From the text: (§1) The uptake of IR783 was studied and confirmed in a variety of human cell lines as shown below: […]

[2] = system: orthotopic prostate ARCaPM tumor; assay: NIR imaging to assess pharmacokinetics of IR783 in vivo (FIG. 16A, 19); set-up: species or system mouse
Experimental: NIR imaging studies were performed to assess pharmacokinetics of the IR783 in vivo. […] This mouse was injected i.p with 0.2 μg/kg IR783 at 0 hrs.

[3] = system: subcutaneous ARCaPM tumor, intratibial C4-2 tumor; assay: IR783 imaging of human prostate cancer xenografts in nude mice (FIG. 15); type: in vivo, mouse
Experimental: The mice were injected i.p with IR783 at 0.2 μg/kg. Imaging was performed 24 hours later with the Kodak multimodal-imaging system. Histopathological analysis (H/E) confirmed the presence of tumors. […] Histopathology confirmed the necrotic status of the tumors.

[4] = system: RAW; assay: uptake of IR783 in cell lines: mouse macrophages; type: cell-based
From the text: as §1

[5] = system: human renal tissues freshly obtained from surgery; assay: staining of fresh human renal tumor specimens with IR783 (FIG. 20)
From the text: The compounds of the invention can also be used to detect cancer in fresh (or frozen or preserved) cells. In one embodiment of this aspect of the invention, cells are obtained from small needle biopsy, needle aspiration, or other methods as known in the art. The cells after dye uptake is completed can be minced, sliced, smeared onto a slide, or any other preparation. An amount of one or more compound of the invention can be dropped onto the cells or otherwise contacted with the cells (shaken in a tube, for example). […] The cells can be imaged under a fluorescence microscope equipped with a NIR filter, for example.

[6] = system: PDAC-2.3, PDAC-3.3, BTC-3, BTC-5; assay: uptake of IR783 in cell lines: pancreatic; type: cell-based, human
From the text: as §1

CC1(C)C(=CC=C2CCCC(C=CC3=[N+](CCCCS(=O)(=O)[O-])c4ccccc4C3(C)C)=C2Cl)N(CCCCS(=O)(=O)[O-])c2ccccc21.[Na+] [IR783]
Uptake [1]: Very low | non-specific imaging ([2]; 0.2 μg/kg i.p): non-specific imaging can be seen in the first 24 hrs, predominantly in the liver | retention in tumors ([2]; 0.2 μg/kg i.p, 3.4 cm^3 orthotopic ARCaPM tumor): more than 4 days | initial distribution ([2]; 0.2 μg/kg i.v or i.p): initially accumulated in liver, lung and spleen | time at which dye appeared in tumor ([2]; 0.2 μg/kg i.v or i.p): 24 h | time after which tumors and metastases can be readily identified ([2]; ARCaP orthotopic tumors, FIG. 19): 24 to 48 h | signal in mice without tumors ([2]; data not shown): background activity | accumulation in gall bladder or urinary bladder ([2]; mouse, in vivo): not detected | time of accumulation in tumor and metastases ([2]; orthotopic xenograft ARCaPm tumor, FIG. 16 legend): 24 to 96 h | dye in normal organs removed from hosts ([3]; fluorescence imaging of all organs, data not shown): lack of uptake of the dye in normal organs | dye in metabolically active C4-2 tumors in mouse tibia ([3]; mouse, in vivo): retained the dye | dye retention in necrotic tumors on the contralateral side ([3]; mouse, in vivo): did not | smallest tumor size detected ([3]; orthotopic or bone metastatic lesions, data not shown): ~2 mm^3 | uptake by xenografts and metastatic bone lesions ([3]; subcutaneous and intra-tibial sites of nude mice, 0.2 μg/kg i.p, 24 hours): preferentially taken up | Uptake [4]: Very low | distribution in renal tissue, confocal microscopy ([5]; tissues incubated with IR783, washed): concentrated in renal cancer but not normal kidney cells | fluorescence imaging of tumor regions ([5]; tumor, transitional and normal sections): intense uptake and retention | Uptake [6]: Strong
